Laboratory results as given in US20130316985A1, “GPR35 Ligands And Uses Thereof” (CORNING INCORPORATED, priority 2012, published 2013).
“Also recorded” adds a separate entry of the source. Like-named read-outs stand apart in the source and are kept apart here.

Columns and labels:
GPR35 [1] = target: T1, GPR35 (Homo sapiens, UniProt Q9HC97); test: DMR agonism assay in native HT-29 cells (Epic optical biosensor); settings: for DMR signal in HT-29 cells (in words): agonism mode
GPR35 [2] = target: T1, GPR35; test: Tango β-arrestin translocation gene reporter assay in U2OS-GPR35-bla cells; type: cell-based; design: TEV protease site (C); Gal4-VP16 transcription factor (C); settings: for EC50: read-out: Potency EC50, Tango; for β-arrestin translocation (Tango) signal (in words): 2,3-DNP up to 1 mM, 3,4-DNP at 1 mM
GPR35 [3] = target: T1, GPR35
GPR35 [4] = target: T1, GPR35; settings: U2OS-GPR35-bla
Source text: Tango™ GPR35-bla U2OS cells was used. This cell line stably expresses two fusion proteins: human GPR35 linked to a TEV protease site and a Gal4-VP16 transcription factor, and 13-arrestin/TEV protease fusion protein. The cell line also stably expresses the β-lactamase reporter gene under the control of a UAS response element. The activation of GPR35 by agonists leads to the recruitment of 13-arrestin/TEV protease fusion proteins to the activated GPR35. As a result, the protease cleaves the Gal4-VP16 transcription factor from the receptor, which then translocates to the nucleus and activates the expression of beta-lactamase. […] After overnight culture, the cells were stimulated with ligands for 5 hrs in a humidified 37° C./5% CO2, and then loaded with the cell permeable LiveBLAzer™ FRET B/G substrate. After the two hour incubation the coumarin:fluorescein ratio was measured using Tecan Safire II microplate reader (Männedorf, Switzerland). In the absence of beta-lactamase expression (i.e., no GPR35 activation), cells generate green fluorescence. In the presence of beta-lactamase expression upon receptor activation, the substrate is cleaved and the cells generate blue fluorescence. The coumarin:fluorescein ratio was used as a normalized reporter response.
The U2OS-GPR35-bla cells were pretreated with ML145 for 10 min, followed by stimulation with GPR35 agonists at a fixed concentration (indicated in the legend of FIG. 5). The data represents mean±s.d. from two independent measurements, each in duplicate (n=2).

GPR35 [5] = target: T1, GPR35; test: cell-based
GPR35 [6] = target: T1, GPR35; remark: listed apart in the source
[7] = U2OS-GPR35-bla cells, β-arrestin translocation, mean ± s.d.
[8] = HT-29, ML-145 at different doses 10 min before agonist at fixed dose
[9] = U2OS-GPR35-bla, zaprinast maximal response in same plate = 100%, read-out: efficacy (Tango, normalized to maximal response of zaprinast)
[10] = maximal response normalized to the zaprinast maximal response, read-out: Efficacy Tango
[11] = maximal DMR response in HT-29 (2,5-DNP: amplitude at 50 min)
[12] = maximal response normalized to the zaprinast maximal response

T1 sequence (Q9HC97 whole entry, the tested form may be a part): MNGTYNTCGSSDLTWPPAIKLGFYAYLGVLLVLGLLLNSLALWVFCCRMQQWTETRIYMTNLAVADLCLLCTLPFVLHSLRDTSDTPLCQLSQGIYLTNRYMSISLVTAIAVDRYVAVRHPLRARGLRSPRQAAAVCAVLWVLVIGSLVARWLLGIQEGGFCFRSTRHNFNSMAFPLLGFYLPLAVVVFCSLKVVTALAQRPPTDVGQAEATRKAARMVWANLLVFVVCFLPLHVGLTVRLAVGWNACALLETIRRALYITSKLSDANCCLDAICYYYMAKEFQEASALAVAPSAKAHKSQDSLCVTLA

## O=C(O)c1cc(/N=N/c2ccc(O)c(C(=O)O)c2)ccc1O (single isomer, unassigned) [olsalazine]
GPR35 [1]
  EC50: 21.8 nM
GPR35 [2]; [7]
  EC50: 1.26 µM
GPR35 [2]; U2OS-GPR35-bla, listed as olasalazine
  agonist type compared to zaprinast, based on maximal responses in Tango assays: full agonists

## O=[N+]([O-])c1ccc(O)c([N+](=O)[O-])c1 [2,4-DNP, 2,4-dinitrophenol]
GPR35 [1]
  Efficacy DMR: 249 ± 17 pm
GPR35 [2]; read-out: Efficacy Tango
  Emax: 28 ± 1%
GPR35 [2]
  EC50: 272 µM
GPR35 [2]; read-out: efficacy (Tango, normalized to maximal response of zaprinast)
  Emax: 28%
GPR35 [3]
  inhibition of the agonist-induced DMR by ML-145 (in words): partial inhibition; also recorded: partially inhibited

## O=[N+]([O-])c1cc(O)c(O)c([N+](=O)[O-])c1 [3,5-dinitrocatechol]
GPR35 [2]
  EC50: 123 µM

## COc1cccc(O)c1O [3-methoxycatechol]
GPR35 [4]
  block of the agonist-induced Tango signal by ML-145 (in words): can be blocked by ML-15
GPR35 [1]
  DMR signal in HT-29 cells (in words): active
GPR35 [2]; U2OS-GPR35-bla
  β-arrestin translocation (Tango) signal (in words): trigger Tango signal
GPR35 [3]; [8]
  inhibition of the agonist-induced DMR by ML-145 (in words): can be blocked by ML-145

## O=C(O)c1cc(/N=N/c2ccc(O)c(C(=O)O)c2)ccc1O [Bi-ASA, (E)-(5,5-diazene-1,2-diyl)bis(2-hydroxybenzoic acid)]
GPR35 [1]
  EC50: 2.09 nM
GPR35 [2]; U2OS-GPR35-bla
  agonist type compared to zaprinast, based on maximal responses in Tango assays: strong partial agonist
GPR35 [2]; [7]
  EC50: 1.7 µM

## Nc1ccc(O)c(C(=O)O)c1 [Compound 5-ASA, 5-aminosalicylic acid]
GPR35 [5]
  EC50: 14700 nM
GPR35 [2]; U2OS-GPR35-bla
  agonist type compared to zaprinast, based on maximal responses in Tango assays: weak partial agonist
GPR35 [2]; [7]
  EC50: 545 µM

## CCN(CC)C(=O)/C(C#N)=C/c1cc(O)c(O)c([N+](=O)[O-])c1 [Entacapone]
GPR35 [2]; [9]
  Emax: 6%
GPR35 [2]; [10]
  Emax: 6 ± 1%

## O=C(c1cc(O)c(O)c([N+](=O)[O-])c1)c1ccccc1F [Ro41-0960]
GPR35 [6]
  EC50: 8.66 µM
GPR35 [1]; [11]
  Efficacy DMR: 257 ± 16 pm
GPR35 [2]; [7]
  EC50: 54.4 µM
GPR35 [2]; U2OS-GPR35-bla, zaprinast maximal response in same plate = 100%
  efficacy (Tango, normalized to maximal response of zaprinast): 13%
GPR35 [2]; [12]
  Efficacy Tango: 13 ± 1 % zaprinast
GPR35 [3]; [8]
  inhibition of the agonist-induced DMR by ML-145 (in words): partially inhibited

## Cc1ccc(C(=O)c2cc(O)c(O)c([N+](=O)[O-])c2)cc1 [Tolcapone, 3,4-dihydroxy-4′-methyl-5-nitrobenzophenone]
GPR35 [6]
  EC50: 7.44 µM
GPR35 [1]
  DMR signal in HT-29 cells (in words): positive DMR with an early peak followed by a small decay to another elevated plateau
GPR35 [1]; [11]
  Efficacy DMR: 400 ± 33 pm
GPR35 [2]; [7]
  EC50: 49.2 µM
GPR35 [2]; [9]
  Emax: 25%
GPR35 [2]; [10]
  Emax: 25 ± 2%
GPR35 [3]; [8]
  inhibition of the agonist-induced DMR by ML-145 (in words): partially inhibited
GPR35 [3]; HT-29, ML-145 at different doses 10 min before agonist at fixed dose, listed as tolcapone
  inhibition of the agonist-induced DMR by ML-145 (in words): partial inhibition

## CCCOc1ccccc1-c1nc(=O)c2[nH]nnc2[nH]1 [Zaprinast]
GPR35 [1]; [11]
  Efficacy DMR: 254 ± 14 pm
GPR35 [2]; [9]
  Emax: 100%
GPR35 [2]; [12]
  Efficacy Tango: 100 ± 9 % zaprinast

## O=C(O)CCNC(=O)c1ccc(/N=N/c2ccc(O)c(C(=O)O)c2)cc1 [balsalazide]
GPR35 [5]
  EC50: 2590 nM
GPR35 [2]; U2OS-GPR35-bla
  agonist type compared to zaprinast, based on maximal responses in Tango assays: full agonists
GPR35 [2]; [7]
  EC50: 46.2 µM

## CCCCCCCCOC(=O)c1cc(O)c(O)c(O)c1 [octyl gallate]
GPR35 [4]
  block of the agonist-induced Tango signal by ML-145 (in words): can be blocked by ML-15
GPR35 [1]
  DMR signal in HT-29 cells (in words): active
GPR35 [2]; U2OS-GPR35-bla
  β-arrestin translocation (Tango) signal (in words): trigger Tango signal
GPR35 [3]; [8]
  inhibition of the agonist-induced DMR by ML-145 (in words): can be blocked by ML-145

## CCCOC(=O)c1cc(O)c(O)c(O)c1 [propyl gallate]
GPR35 [4]
  block of the agonist-induced Tango signal by ML-145 (in words): can be blocked by ML-15
GPR35 [1]
  DMR signal in HT-29 cells (in words): active
GPR35 [2]; U2OS-GPR35-bla
  β-arrestin translocation (Tango) signal (in words): trigger Tango signal
GPR35 [3]; [8]
  inhibition of the agonist-induced DMR by ML-145 (in words): can be blocked by ML-145

## Oc1cccc(O)c1O [pyrogallol]
GPR35 [4]
  block of the agonist-induced Tango signal by ML-145 (in words): can be blocked by ML-15
GPR35 [1]
  DMR signal in HT-29 cells (in words): active
GPR35 [2]; U2OS-GPR35-bla
  β-arrestin translocation (Tango) signal (in words): trigger Tango signal
GPR35 [3]; [8]
  inhibition of the agonist-induced DMR by ML-145 (in words): can be blocked by ML-145

## O=C(O)c1cc(/N=N/c2ccc(S(=O)(=O)Nc3ccccn3)cc2)ccc1O [sulfasalazine]
GPR35 [5]
  EC50: 2990 nM
GPR35 [2]; U2OS-GPR35-bla
  agonist type compared to zaprinast, based on maximal responses in Tango assays: partial agonist
GPR35 [2]; [7]
  EC50: 31.3 µM
